Experimental data reported in patent publication US20260215428A1, “WEED CONTROL METHOD” (SYNGENTA CROP PROTECTION AG, priority 2023, published 2026).

Assays:
Assay type in all cases: in vivo
Eleusine indica [1] = assay: Glasshouse post-emergence test, visual damage, Tables B1-2 and B1-3; conditions: 14 days after application
Experimental: Seeds of a variety of test species are sown in standard soil in pots. For each treatment, three replicate pots containing 10-15 plants per one-inch pot were sprayed at the 2-3 leaf stage. […] The test plants are then grown in a glasshouse under controlled conditions in a glasshouse (at 24/16° C., day/night; 14 hours light; 65% humidity) and watered twice daily. Plants were assessed for visual damage compared to the untreated control 14 days after application (0=0% damage; 100=100% damage).

Setaria viridis = assay: Glasshouse post-emergence test, visual damage, Table B1-5; conditions: 14 days after application
Experimental: Seeds of a variety of test species are sown in standard soil in pots. For each treatment, three replicate pots containing 10-15 plants per one-inch pot were sprayed at the 2-3 leaf stage. Clethodim and Compound (Ic) were each applied at 15, 30, 60 and 120 g ai/ha. The test plants are then grown in a glasshouse under controlled conditions in a glasshouse (at 24/16° C., day/night; 14 hours light; 65% humidity) and watered twice daily. Plants were assessed for visual damage compared to the untreated control 14 days after application (0=0% damage; 100=100% damage).

Eleusine indica [2] = assay: Further glasshouse test versus other ACCase-inhibiting herbicides, Table B2-2; conditions: 21 days after application
Source text: (§1) Further tests were employed to test the efficacy of a compound of Formula I versus other ACCase-inhibiting herbicides. The five main targets were Lolium multiflorum, Eleusine indica, Digitaria insularis, Sorghum halepense and Echinochloa crus-galli. Collectively, the populations contained all the major target-site resistance mutations affecting ACCase herbicides. Two L. multiflorum (LM-NTSR-1 and LM-NTSR-2) and one E. crus-galli (ECG-NTSR-1) populations were characterised exclusively by non-target-site resistance (“NTSR”). The target-site resistant L. multiflorum and E. indication populations were 100% homozygous for different ACCase mutations whilst the D. insularis, S. halepense and E. crus-galli samples contained a mixture of homozygous wild and mutant individuals at different genotypic frequencies. Additional underlying NTSR cannot be ruled out in the populations characterised by target-site resistance.
(§2) Around 50 seeds of each of the 24 weed populations were sown in 12-cm pots containing a mixture of peat and compost in a 1:1 ratio. The pots were watered, fertilised and kept in controlled glasshouse conditions set at 24° C./16 hr day, 18° C. night, 65% relative humidity, and a photon flux density of approximately 250 μmol quanta m^−2 s^−1 for Lolium multiflorum. The E. indica, D. insularis, S. halepense and E. crus-galli plants were kept in a separate glasshouse bay characterised by a 17 H photoperiod of 180 μmol m^−2 s^−1 with temperatures of 25° C. day and 19° C. night and 65% relative humidity. When the plants were at the two to four-leaf stage, they were treated with the various ACCase-inhibiting herbicides at 0, 15, 30, 60, 120 and 240 g ai ha^−1 in a spray cabinet mounted with a single mobile Teejet flat fan nozzle (11002VS) calibrated to deliver 200 L ha^−1 at 200 kPa. The L. multiflorum populations were treated by a compound of Formula Ic, clodinafop-propargyl, pinoxaden, cycloxydim and clethodim and the warm season grass weeds E. indica, D. insularis, S. halepense and E. crus-galli were sprayed with a Compound Ic and the commonly employed haloxyfop-methyl and clethodim. Three replicate pots were used per population. Plants were assessed for visual damage compared to the untreated control 21 days after application (0=0% damage; 100=100% damage).

Digitaria insularis = assay: Further glasshouse test versus other ACCase-inhibiting herbicides, Table B2-3; conditions: 21 days after application
Source text: as §1, §2

CCSC(C)CC1CC(=O)C(/C(CC)=N/OC/C=C/Cl)=C(O)C1 (stereo not drawn) [Clethodim, clethodim]
visual damage (Eleusine indica [1]; Table B1-2, biotype 87% I1781L (heterozygous), 15 g/ha): 80%
visual damage (Eleusine indica [1]; Table B1-2, biotype 87% I1781L (heterozygous), 30 g/ha): 77%
visual damage (Eleusine indica [1]; Table B1-2, biotype 87% I1781L (heterozygous), 60 g/ha): 100%
visual damage (Eleusine indica [1]; Table B1-2, biotype 87% I1781L (heterozygous), 120 g/ha): 100%
visual damage (Eleusine indica [1]; Table B1-2, biotype D2078G + W2027C (heterozygous), first entry, 15 g/ha): 50%
visual damage (Eleusine indica [1]; Table B1-2, biotype D2078G + W2027C (heterozygous), first entry, 30 g/ha): 60%
visual damage (Eleusine indica [1]; Table B1-2, biotype D2078G + W2027C (heterozygous), first entry, 60 g/ha): 70%
visual damage (Eleusine indica [1]; Table B1-2, biotype D2078G + W2027C (heterozygous), first entry, 120 g/ha): 80%
visual damage (Eleusine indica [1]; Table B1-2, biotype D2078G + W2027C (heterozygous), second entry, 15 g/ha): 63%
visual damage (Eleusine indica [1]; Table B1-2, biotype D2078G + W2027C (heterozygous), second entry, 30 g/ha): 67%
visual damage (Eleusine indica [1]; Table B1-2, biotype D2078G + W2027C (heterozygous), second entry, 60 g/ha): 93%
visual damage (Eleusine indica [1]; Table B1-2, biotype D2078G + W2027C (heterozygous), second entry, 120 g/ha): 100%
visual damage (Eleusine indica [1]; Table B1-2, biotype I2041N (heterozygous), 15 g/ha): 82%
visual damage (Eleusine indica [1]; Table B1-2, biotype I2041N (heterozygous), 30 g/ha): 100%
visual damage (Eleusine indica [1]; Table B1-2, biotype I2041N (heterozygous), 60 g/ha): 100%
visual damage (Eleusine indica [1]; Table B1-2, biotype I2041N (heterozygous), 120 g/ha): 100%
visual damage (Eleusine indica [1]; Table B1-2, biotype NTSR (non-target site resistance), 1 g/ha): 0%
visual damage (Eleusine indica [1]; Table B1-2, biotype NTSR (non-target site resistance), 2 g/ha): 33%
visual damage (Eleusine indica [1]; Table B1-2, biotype NTSR (non-target site resistance), 4 g/ha): 43%
visual damage (Eleusine indica [1]; Table B1-2, biotype NTSR (non-target site resistance), 8 g/ha): 77%
visual damage (Eleusine indica [1]; Table B1-2, biotype Sensitive, 15 g/ha): 87%
visual damage (Eleusine indica [1]; Table B1-2, biotype Sensitive, 30 g/ha): 100%
visual damage (Eleusine indica [1]; Table B1-2, biotype Sensitive, 60 g/ha): 100%
visual damage (Eleusine indica [1]; Table B1-2, biotype Sensitive, 120 g/ha): 100%
visual damage (Eleusine indica [1]; Table B1-3, Pop1 (mix of sensitive, D2078G and G2096A biotypes), 15 g/ha): 10%
visual damage (Eleusine indica [1]; Table B1-3, Pop1 (mix of sensitive, D2078G and G2096A biotypes), 30 g/ha): 33%
visual damage (Eleusine indica [1]; Table B1-3, Pop1 (mix of sensitive, D2078G and G2096A biotypes), 60 g/ha): 47%
visual damage (Eleusine indica [1]; Table B1-3, Pop1 (mix of sensitive, D2078G and G2096A biotypes), 120 g/ha): 63%
visual damage (Eleusine indica [1]; Table B1-3, Pop2 (mix of sensitive, D2078G and G2096A biotypes), 15 g/ha): 10%
visual damage (Eleusine indica [1]; Table B1-3, Pop2 (mix of sensitive, D2078G and G2096A biotypes), 30 g/ha): 33%
visual damage (Eleusine indica [1]; Table B1-3, Pop2 (mix of sensitive, D2078G and G2096A biotypes), 60 g/ha): 76%
visual damage (Eleusine indica [1]; Table B1-3, Pop2 (mix of sensitive, D2078G and G2096A biotypes), 120 g/ha): 77%
visual damage (Eleusine indica [1]; Table B1-3, biotype Sensitive, 15 g/ha): 100%
visual damage (Eleusine indica [1]; Table B1-3, biotype Sensitive, 30 g/ha): 100%
visual damage (Eleusine indica [1]; Table B1-3, biotype Sensitive, 60 g/ha): 100%
visual damage (Eleusine indica [1]; Table B1-3, biotype Sensitive, 120 g/ha): 100%
visual damage (Setaria viridis; biotype GG2078 (homozygous), 15 g/ha): 30%
visual damage (Setaria viridis; biotype GG2078 (homozygous), 30 g/ha): 60%
visual damage (Setaria viridis; biotype GG2078 (homozygous), 60 g/ha): 63%
visual damage (Setaria viridis; biotype GG2078 (homozygous), 120 g/ha): 67%
visual damage (Setaria viridis; biotype II1781 (homozygous), 15 g/ha): 80%
visual damage (Setaria viridis; biotype II1781 (homozygous), 30 g/ha): 100%
visual damage (Setaria viridis; biotype II1781 (homozygous), 60 g/ha): 100%
visual damage (Setaria viridis; biotype II1781 (homozygous), 120 g/ha): 100%
visual damage (Setaria viridis; biotype LL1781 (homozygous), 15 g/ha): 50%
visual damage (Setaria viridis; biotype LL1781 (homozygous), 30 g/ha): 60%
visual damage (Setaria viridis; biotype LL1781 (homozygous), 60 g/ha): 60%
visual damage (Setaria viridis; biotype LL1781 (homozygous), 120 g/ha): 53%
visual damage (Setaria viridis; biotype Sensitive, 15 g/ha): 90%
visual damage (Setaria viridis; biotype Sensitive, 30 g/ha): 98%
visual damage (Setaria viridis; biotype Sensitive, 60 g/ha): 100%
visual damage (Setaria viridis; biotype Sensitive, 120 g/ha): 100%
visual damage (Eleusine indica [2]; biotype D2078G, 15 g/ha): 10%
visual damage (Eleusine indica [2]; biotype D2078G, 30 g/ha): 27%
visual damage (Eleusine indica [2]; biotype D2078G, 60 g/ha): 53%
visual damage (Eleusine indica [2]; biotype D2078G, 120 g/ha): 100%
visual damage (Eleusine indica [2]; biotype D2078G, 240 g/ha): 100%
visual damage (Eleusine indica [2]; biotype G2096A, 15 g/ha): 7%
visual damage (Eleusine indica [2]; biotype G2096A, 30 g/ha): 30%
visual damage (Eleusine indica [2]; biotype G2096A, 60 g/ha): 78%
visual damage (Eleusine indica [2]; biotype G2096A, 120 g/ha): 100%
visual damage (Eleusine indica [2]; biotype G2096A, 240 g/ha): 100%
visual damage (Eleusine indica [2]; biotype I2041N, 15 g/ha): 60%
visual damage (Eleusine indica [2]; biotype I2041N, 30 g/ha): 27%
visual damage (Eleusine indica [2]; biotype I2041N, 60 g/ha): 53%
visual damage (Eleusine indica [2]; biotype I2041N, 120 g/ha): 100%
visual damage (Eleusine indica [2]; biotype I2041N, 240 g/ha): 100%
visual damage (Eleusine indica [2]; biotype Sensitive, 15 g/ha): 92%
visual damage (Eleusine indica [2]; biotype Sensitive, 30 g/ha): 100%
visual damage (Eleusine indica [2]; biotype Sensitive, 60 g/ha): 100%
visual damage (Eleusine indica [2]; biotype Sensitive, 120 g/ha): 100%
visual damage (Eleusine indica [2]; biotype Sensitive, 240 g/ha): 100%
visual damage (Eleusine indica [2]; biotype W2027C, 15 g/ha): 93%
visual damage (Eleusine indica [2]; biotype W2027C, 30 g/ha): 100%
visual damage (Eleusine indica [2]; biotype W2027C, 60 g/ha): 100%
visual damage (Eleusine indica [2]; biotype W2027C, 120 g/ha): 100%
visual damage (Eleusine indica [2]; biotype W2027C, 240 g/ha): 100%
visual damage (Digitaria insularis; biotype Sensitive, 15 g/ha): 100%
visual damage (Digitaria insularis; biotype Sensitive, 30 g/ha): 100%
visual damage (Digitaria insularis; biotype Sensitive, 60 g/ha): 100%
visual damage (Digitaria insularis; biotype Sensitive, 120 g/ha): 100%
visual damage (Digitaria insularis; biotype Sensitive, 240 g/ha): 100%
visual damage (Digitaria insularis; biotype W2027C, 15 g/ha): 78%
visual damage (Digitaria insularis; biotype W2027C, 30 g/ha): 100%
visual damage (Digitaria insularis; biotype W2027C, 60 g/ha): 100%
visual damage (Digitaria insularis; biotype W2027C, 120 g/ha): 100%
visual damage (Digitaria insularis; biotype W2027C, 240 g/ha): 100%
